Measured values reported in the CheMixHub viscosity set.

Experiment: xn = mol fraction of the nth substance listed

CCCCCCCCCCCCBr + BrC(Br)C(Br)Br
101 kPa
Details	viscosity [mPa·s]
298.08 K, x1 = 0.1586	7.196
298.08 K, x1 = 0.3004	5.936
298.08 K, x1 = 0.4493	5.091
298.08 K, x1 = 0.6166	4.392
298.08 K, x1 = 0.7772	3.877
303.1 K, x1 = 0.1376	6.506
303.1 K, x1 = 0.2855	5.399
303.1 K, x1 = 0.4255	4.58
303.1 K, x1 = 0.6541	3.787
303.1 K, x1 = 0.7773	3.437
308.11 K, x1 = 0.1363	5.669
308.11 K, x1 = 0.289	4.673
308.11 K, x1 = 0.4415	4.027
308.11 K, x1 = 0.6215	3.498
308.11 K, x1 = 0.7595	3.147
313.11 K, x1 = 0.1456	5.011
313.11 K, x1 = 0.2924	4.238
313.11 K, x1 = 0.4286	3.667
313.11 K, x1 = 0.634	3.093
313.11 K, x1 = 0.782	2.781

CCOC(C)=O + C1CCCCC1
viscosity [mPa·s], 101 kPa
Details	298.15 K	308.15 K
x1 = 0.0548	0.841	0.706
x1 = 0.1549	0.765	0.63
x1 = 0.2552	0.7	0.569
x1 = 0.3558	0.643	0.52
x1 = 0.4539	0.595	0.481
x1 = 0.4998	0.575	0.466
x1 = 0.5513	0.554	0.451
x1 = 0.6549	0.516	0.426
x1 = 0.7515	0.486	0.408
x1 = 0.8531	0.458	0.395
x1 = 0.9536	0.435	0.387

CCOc1ccccc1 + C1CCOC1
viscosity [mPa·s], 101.33 kPa
Details	x1 = 0.031	x1 = 0.072	x1 = 0.117	x1 = 0.197	x1 = 0.246	x1 = 0.326	x1 = 0.492	x1 = 0.695	x1 = 0.899
298 K	0.475	0.493	0.515	0.555	0.581	0.627	0.736	0.891	1.067
303 K	0.451	0.468	0.487	0.524	0.547	0.587	0.684	0.824	0.985
308 K	0.431	0.447	0.464	0.496	0.518	0.554	0.642	0.766	0.908

CCOC(C)=O + C1COCCO1
Details	viscosity [mPa·s]
303.15 K, 101 kPa, x2 = 0.1021	0.435
303.15 K, 101 kPa, x2 = 0.2024	0.466
303.15 K, 101 kPa, x2 = 0.2982	0.505
303.15 K, 101 kPa, x2 = 0.4026	0.553
303.15 K, 101 kPa, x2 = 0.4968	0.602
303.15 K, 101 kPa, x2 = 0.6025	0.668
303.15 K, 101 kPa, x2 = 0.697	0.742
303.15 K, 101 kPa, x2 = 0.8007	0.834
303.15 K, 101 kPa, x2 = 0.9003	0.948
303.15 K, 101.32 kPa, x1 = 0.0451	1.02
303.15 K, 101.32 kPa, x1 = 0.0948	0.948
303.15 K, 101.32 kPa, x1 = 0.1332	0.901
303.15 K, 101.32 kPa, x1 = 0.1779	0.848
303.15 K, 101.32 kPa, x1 = 0.2236	0.802
303.15 K, 101.32 kPa, x1 = 0.3187	0.717
303.15 K, 101.32 kPa, x1 = 0.4176	0.648
303.15 K, 101.32 kPa, x1 = 0.467	0.616
303.15 K, 101.32 kPa, x1 = 0.5155	0.59
303.15 K, 101.32 kPa, x1 = 0.6182	0.539
303.15 K, 101.32 kPa, x1 = 0.7243	0.497
303.15 K, 101.32 kPa, x1 = 0.8297	0.456
303.15 K, 101.32 kPa, x1 = 0.9411	0.422
308.15 K, 101 kPa, x2 = 0.1	0.439
308.15 K, 101 kPa, x2 = 0.2	0.475
308.15 K, 101 kPa, x2 = 0.3	0.506
308.15 K, 101 kPa, x2 = 0.4	0.542
308.15 K, 101 kPa, x2 = 0.5	0.58
308.15 K, 101 kPa, x2 = 0.6	0.625
308.15 K, 101 kPa, x2 = 0.8	0.756
308.15 K, 101 kPa, x2 = 0.9	0.852
313.15 K, 101.32 kPa, x1 = 0.209	0.717
313.15 K, 101.32 kPa, x1 = 0.405	0.583
313.15 K, 101.32 kPa, x1 = 0.5144	0.528
313.15 K, 101.32 kPa, x1 = 0.602	0.49
313.15 K, 101.32 kPa, x1 = 0.7994	0.423

CCCCCCCCCCCC(=O)OC + C1C[C@@H]2[C@H]3CC[C@H](C3)[C@@H]2C1
viscosity [mPa·s], 100 kPa
Details	x2 = 0.1012	x2 = 0.2004	x2 = 0.3001	x2 = 0.4004	x2 = 0.5021	x2 = 0.6003	x2 = 0.7003	x2 = 0.8001	x2 = 0.8991
293.15 K	3.062	3.012	2.973	2.927	2.896	2.874	2.864	2.877	2.909
298.15 K	2.73	2.69	2.659	2.625	2.599	2.585	2.58	2.595	2.628
303.15 K	2.454	2.419	2.397	2.369	2.349	2.339	2.338	2.356	2.388
308.15 K	2.218	2.191	2.173	2.152	2.134	2.129	2.13	2.149	2.183
313.15 K	2.018	1.994	1.98	1.963	1.951	1.946	1.949	1.969	2.001
318.15 K	1.844	1.824	1.813	1.799	1.789	1.787	1.791	1.811	1.841
323.15 K	1.693	1.676	1.668	1.656	1.647	1.647	1.652	1.672	1.702

CCOc1ccccc1 + CC1COC(=O)O1
viscosity [mPa·s], 101.33 kPa
Details	x2 = 0.1218	x2 = 0.2226	x2 = 0.3591	x2 = 0.4874	x2 = 0.5257	x2 = 0.5674	x2 = 0.6723	x2 = 0.7807	x2 = 0.8898	x2 = 0.9431
293.15 K	1.338	1.436	1.586	1.739	1.789	1.837	1.985	2.17	2.405	2.544
303.15 K	1.119	1.202	1.316	1.44	1.474	1.516	1.63	1.773	1.96	2.078
313.15 K	0.945	1.013	1.11	1.215	1.246	1.278	1.373	1.495	1.651	1.742

CCOC(C)=O + CC#N
303.15 K, 101.33 kPa
Details	viscosity [mPa·s]
x2 = 0.0931	0.3988
x2 = 0.1928	0.3934
x2 = 0.298	0.3881
x2 = 0.3925	0.3819
x2 = 0.4985	0.3753
x2 = 0.5974	0.3676
x2 = 0.6982	0.3591
x2 = 0.8001	0.3486
x2 = 0.8988	0.3402

OCC(O)CO + CC(=O)N(C)C
viscosity [mPa·s], 101 kPa
Details	x1 = 0.124	x1 = 0.241	x1 = 0.353	x1 = 0.459	x1 = 0.56	x1 = 0.656	x1 = 0.748	x1 = 0.836	x1 = 0.92
303.15 K	2.21	3.92	7.04	12.8	29.9	61.6	120.7	204.4	335.7
318.15 K	1.78	3.01	4.79	7.81	17.6	26.3	43.2	75.9	117.4

CCCCCCCCCCCC(=O)OC + CC(C)C1CCCCC1
viscosity [mPa·s], 100 kPa
Details	x2 = 0.1008	x2 = 0.2004	x2 = 0.3006	x2 = 0.4002	x2 = 0.5004	x2 = 0.6003	x2 = 0.7001	x2 = 0.8	x2 = 0.9001
293.15 K	2.862	2.608	2.365	2.139	1.93	1.728	1.546	1.378	1.229
298.15 K	2.558	2.342	2.133	1.937	1.756	1.579	1.419	1.271	1.137
303.15 K	2.303	2.117	1.936	1.765	1.606	1.45	1.308	1.176	1.056
308.15 K	2.088	1.926	1.768	1.617	1.476	1.338	1.211	1.093	0.984
313.15 K	1.904	1.759	1.621	1.488	1.363	1.239	1.126	1.018	0.92
318.15 K	1.743	1.616	1.493	1.375	1.262	1.152	1.05	0.952	0.863
323.15 K	1.602	1.49	1.38	1.274	1.174	1.074	0.981	0.893	0.812

COC(=O)CC(C)=O + CC(C)CO
viscosity [mPa·s], 101.3 kPa
Details	x1 = 0.1046	x1 = 0.2052	x1 = 0.3095	x1 = 0.4094	x1 = 0.5075	x1 = 0.6057	x1 = 0.7026	x1 = 0.8059	x1 = 0.902
298.15 K	2.24	1.81	1.598	1.463	1.385	1.352	1.35	1.38	1.449
303.15 K	1.944	1.591	1.412	1.303	1.241	1.221	1.223	1.251	1.312
308.15 K	1.696	1.407	1.257	1.17	1.124	1.108	1.114	1.143	1.198

CCCCCC[n+]1ccn(C)c1.O=S(=O)([O-])C(F)(F)F + CC(C)O
Details	viscosity [mPa·s]
298.15 K, 100 kPa, x2 = 0.1282	99.47

CCOC(C)=O + CC(C)O
viscosity [mPa·s], 101.3 kPa
Details	x1 = 0.1003	x1 = 0.2045	x1 = 0.3082	x1 = 0.4005	x1 = 0.4994	x1 = 0.5952	x1 = 0.7049	x1 = 0.7916	x1 = 0.9011
298.15 K	1.326	0.9655	0.767	0.6606	0.5797	0.5283	0.4812	0.466	0.4473
303.15 K	1.177	0.8717	0.701	0.6122	0.5391	0.4939	0.4525	0.4389	0.4233
308.15 K	1.044	0.7861	0.6407	0.5644	0.5011	0.4617	0.4257	0.4153	0.4006
313.15 K	0.9286	0.7126	0.5876	0.5224	0.4673	0.4332	0.4012	0.3911	0.3793
318.15 K	0.8325	0.6477	0.5427	0.4856	0.4365	0.4066	0.3798	0.3711	0.3605
323.15 K	0.7498	0.5901	0.501	0.4503	0.4088	0.3831	0.3586	0.3513	0.343

COC(=O)CC(C)=O + CC(C)O
viscosity [mPa·s], 101.3 kPa
Details	x1 = 0.1028	x1 = 0.2052	x1 = 0.3051	x1 = 0.4085	x1 = 0.4086	x1 = 0.5084	x1 = 0.6057	x1 = 0.7079	x1 = 0.8053	x1 = 0.9038
298.15 K	1.457	1.267	1.195	1.168	–	1.16	1.189	1.243	1.315	1.419
303.15 K	1.279	1.124	1.068	1.051	–	1.049	1.08	1.127	1.197	1.287
308.15 K	1.023	1.006	0.963	–	0.952	0.956	0.985	1.032	1.094	1.133

FC(F)(F)C(F)(F)Cl + CC(F)F
Details	viscosity [mPa·s]
299.88 K, 101.13 kPa, x1 = 0.69	0.1856

OCC(O)CO + CCC(C)O
viscosity [mPa·s], 101.33 kPa
Details	x1 = 0.103	x1 = 0.2005	x1 = 0.3005	x1 = 0.4065	x1 = 0.5004	x1 = 0.6005	x1 = 0.6997	x1 = 0.7989	x1 = 0.8998
298.15 K	4.899	8.259	14.21	26.4	50.58	96.78	190.1	327.9	521.9
308.15 K	3.311	5.321	8.761	15.79	27.46	49.39	90.98	149.4	231.6
318.15 K	2.387	3.648	5.727	9.681	15.6	26.39	45.42	71.57	107.4

CCCCCCCCCCCCCCCCCCCl + CCCCC
298 K, 101.3 kPa
Details	viscosity [mPa·s]
x2 = 0.1054	6.009
x2 = 0.2014	4.945
x2 = 0.3067	3.902
x2 = 0.4166	2.952
x2 = 0.4993	2.325
x2 = 0.6122	1.613
x2 = 0.7054	1.157
x2 = 0.8048	0.7477
x2 = 0.9029	0.431
